From US20250235486A1, “Method of Producing Insulin-Producing Cells” (Monash University, priority 2022, published 2025) come the findings set out here.

What all share (type): cell-based
Experiment [1] deals with H3K27me3 content at promoters in human exocrine cells. Description: Chromatin immunoprecipitation (anti-H3K27me3) qPCR in exocrine cells of a non-diabetic donor. The settings on record: GSK126 vs DMSO. As to the method: Chromatin immunoprecipitation assays in human exocrine cells were performed previously described (Rafehi H, et al. Vascular histone deacetylation by pharmacological HDAC inhibition. Genome Res 24, 1271-1284 (2014); Pirola L, et al. Genome-wide analysis distinguishes hyperglycemia regulated epigenetic signatures of primary vascular cells. Genome Res 21, 1601-1615 (2011)). Cells were fixed for 10 minutes with 1% formaldehyde and quenched for 10 mins with glycine (0.125 M) solution. Fixed cells were resuspended in sodium dodecyl (lauryl) sulfate (SDS) lysis buffer (1% SDS, 10 mM EDTA, 50 mM Tris-HCl pH 8.1) including a protease inhibitor cocktail (Roche Diagnostics GmBH, Mannheim, Germany) and homogenized followed by incubation on ice for 5 minutes. […] H3K27me3 content at the promoters of the INS, INS-IGF2, NGN3 and PDX1 genes were assessed by qPCR using primers designed from the integrative ENCODE resource (Zhang J, et al. An integrative ENCODE resource for cancer genomics. Nat Commun 11, 3696 (2020)).
Proteins were cross-linked to DNA and soluble chromatin fractionated by sonication. […] DNA was assessed by qPCR using amplimers specifically designed to detect human Ins chromatin domain genes (FIG. 5a). […]
On the technique in general: Quantitative PCR measures a nucleic acid by following its amplification.

The subject of experiment [2] is Human immortalised ductal cell line. Description: qRT-PCR gene expression in human immortalised ductal cell line. The settings on record: ursolic acid 1, 2.5 or 5 μM; GSK126 5, 10 or 20 μM. As to the method:
Human immortalised ductal cell line (Catalog #: T0018001, Addexbio) was cultured and assayed in Keratinocyte SFM (serum-free medium) (Catalog number 17005042, ThermoFisher Scientific, USA). Pharmacological inhibition of EZH2 and gene expression analysis were performed as described in Example 1.

Experiment [3] relates to human exocrine (acinar and ductal) cells. Description: qRT-PCR gene expression in human exocrine (acinar and ductal) cells from a non-diabetic donor. The settings on record: 48 hours: GSK126 10 μM, CPI-1205 5 μM, ursolic acid 5 μM, GSK343 5 μM, EPZ-6438 5 μM. On the procedure: (§1) Exocrine cells from a non-diabetic human and a marmoset were cultured and assayed in Miami/CMRL medium. The human exocrine cells were sourced from the Islet Transplant Unit of St Vincent's Institute for Medical Research. The marmoset exocrine cells were sourced from the Australian Regenerative Medicine Institute (ARMI), Monash University. Miami media is based on CMRL 1066 media (Connaught Medical Research Lab) supplemented with: Insulin, Transferrin & Selenium (ITS), human serum, Vitamin E, sodium pyruvate, zinc and HEPES. Pharmacological inhibition of EZH2 and gene expression analysis were performed as described in Example 1.

For experiment [4], the system named is marmoset exocrine (acinar and ductal) cells. Description: qRT-PCR gene expression in marmoset exocrine (acinar and ductal) cells. The settings on record: 48 hours: GSK126 10 μM, ursolic acid 5 μM. As to the method:
as §1

The test system of experiment [5] is Human pancreatic ductal epithelial cells. Description: qRT-PCR after 2- and 7-day EZH2 inhibitor stimulation of human pancreatic ductal epithelial cells. The settings on record: GSK-126 10 μM.
Description: Human pancreatic ductal epithelial cells were purchased from AddexBio and cultured according to the recommended protocols. Cells were cultured in complete Keratinocyte Serum-Free Media (supplemented with human recombinant EGF, Bovine Pituitary Extract and Antibiotic-Antimycotic [Gibco]. All cell cultures were grown and maintained in a 37° C., 5% C02 environment using a tissue culture incubator. Once cells reached 70-80% confluency, passaging was performed using 0.05% Trypsin EDTA (Sigma). […] Vehicle control was DMSO. Cells were treated over 2 main timepoints, with harvests occurring following 2, and 7 days. For the 2-day time point, cells were seeded and left to adhere in plates for 24 hours. Treatment was initiated with the first dose made up in complete K-SFM. The second dose was delivered 24 hours later following a media change. For the longer period of 7 days, cells were initially seeded in 10 cm plates, with doses delivered on alternate days following the initial period of 24 hours. […] Ct values of experimental genes were normalized to housekeeping gene [MUT]. Fold change of mRNA abundance was calculated by normalizing drug treated values to vehicular controls. […] RNA was isolated using the RNeasy Kit according to the manufacturer's directions. Following measurement of RNA concentration using a QIAxpert System, 1 μg of RNA was used for cDNA synthesis by a high-capacity cDNA Reverse Transcription Kit (Applied Biosystems). The resulting cDNA reaction mix was diluted 1:6 to make up the final template cDNA used subsequently. […] Ct values of experimental genes were normalized to housekeeping gene [MUT]. Fold change of mRNA abundance was calculated by normalizing drug treated values to vehicular controls.
In experiment [6] the test system is H3K27me3 or H3K9/14ac content at the promoters of INS-IGF2, NGN3 and PDX1 in human pancreatic ductal epithelial cells. Description: Quantitative PCR chromatin immunoprecipitation (q-PCR ChIP) after 2- and 7-day stimulation. The settings on record: 2-day stimulation (FIG. 12b). On the procedure: Approximately 5×10^6 cells were fixed in 1% formaldehyde for 10 minutes, with a further 10-minute incubation in 0.125M glycine to quench the cross-linking reaction. The fixed cell pellet was lysed following resuspension and homogenization in sodium dodecyl (lauryl) sulphate (SOS) lysis buffer (1% SOS, 10 mM EDTA, 50 mM Tris-HCl pH 8.1) with a protease inhibitor cocktail (Roche Diagnostics GmBH, Mannheim, Germany) included. Samples were incubated on ice for 5 minutes following which sonication was performed to shear chromatin between 200-600 bp. Sonicated chromatin was resuspended in ChIP Dilution Buffer (0.01% SOS, 1.1% Triton X-100, 1.2 mM EDTA, 16.7 mM Tris-HCl pH 8.0 and 167 mM NaCl). 20 μl of DynabeadsR Protein A (Invitrogen, Carlsbad, CA, USA) was added to each sample and pre-cleared. Overnight incubation at 4° C. with H3K27me3 or H3K9/14ac antibody was used for immunoprecipitation of chromatin, as previously described. Immunoprecipitates were collected by magnetic isolation and washed sequentially with low salt and high salt buffers. Immunoprecipitated DNA was then eluted from solution with 0.1 M NaHCO3 containing 1% SIDS. Protein-DNA cross-links were reversed by incubation of samples in Proteinase K (Sigma, St. Louis, MO, USA) for 2 hours at 62° C. DNA was purified using a Qiagen MinElute column (Qiagen Inc., Valencia, CA, USA). H3K27me3 or H3K9/14ac content at the promoters of the INS-IGF2, NGN3 and PDX1 genes were assessed by qPCR using primers designed from the integrative ENCODE resource.

In experiment [7] the test system is Human pancreatic ductal epithelial cells. Description: Glucose stimulated insulin secretion assay (ELISA).
Description: 5×10^5 cells were seeded in 12-well plates and allowed to adhere for 24 hours. […] Next, cells were cultured in 28 mM (High) glucose Krebs Buffer solution and incubated for 1 hour to obtain the glucose stimulated insulin secretion. Supernatant was collected and Ultrasensitive Insulin ELISA (Mercodia) was used to determine the concentration of insulin according to manufacturer's instructions. Fold change of insulin secreted by cells were calculated by adjusting to cells stimulated with EZH2 inhibitors for insulin concentrations compared to control.
[8] abbreviates: 2 days, EPZ6438 1 μM, Triptolide 20 nM.
The mark [9] stands for this setting: 7 days, EPZ6438 1 μM, Triptolide 20 nM.

On to `CC[C@H](C)n1cc(C)c2c(C(=O)NCc3c(C)cc(C)[nH]c3=O)cc(-c3ccc(N4CCNCC4)nc3)cc21` [GSK126, N-[(1,2-Dihydro-4,6-dimethyl-2-oxo-3-pyridinyl)methyl]-3-methyl-1-[(1S)-1-methylpropyl]-6-[6-(1-piperazinyl)-3-pyridinyl]-1H-indole-4-carboxamide], for which the “H3K27me3 content at the Ins and Igf2AS promoter (R1-R3) regions” value in experiment [1] (non-diabetic donor (2)) is reported as “Significant reduction”. Further, the “H3K27me3 content on the Ngn3 promoter R1” value in experiment [1] (non-diabetic exocrine cells) was “marginally affected”. Also, in experiment [2], the “Insulin mRNA expression” value is given as “stimulated expression”, the “Ngn3 mRNA expression” value is reported as “stimulated expression” and the “Pdx1 mRNA expression” value was “stimulated expression”. Moreover, in experiment [3], the “mRNA expression of Insulin, Pdx1 and Ngn3” value was “stimulated expression of one, two or all of Insulin, Pdx1 and Ngn3”. Moreover, in experiment [4], the “Insulin mRNA expression” value is given as “stimulated expression” and the “Pdx1 mRNA expression” value is “stimulated expression”. Also, the “MAFA mRNA levels” value in experiment [5] (2-day point, Triptolide 20 nM) is “increased in a statistically significant manner”. The “Alpha-amylase (AMY2A) transcripts” value in experiment [5] (2 days) is recorded as “increased significantly”. For the same compound, in experiment [5] (setting [8]), the CK19 expression entry is “statistically significant decreases”; the “NGN3 mRNA levels” value is recorded as “significantly elevated”; the “insulin transcripts, mature mRNA (INS)” value is on record as “elevations”; the “insulin transcripts, unprocessed heterogenous nuclear form (INS hnRNA)” value is “elevations”. Moreover, in experiment [5] (setting [9]), the “NGN3 mRNA levels” value was “Further increases”; the “insulin transcripts, mature mRNA (INS)” value is recorded as “even further increases”; the “insulin transcripts, unprocessed heterogenous nuclear form (INS hnRNA)” value is recorded as “even further increases”. In addition, in experiment [6], the “H3K27me3 content of chromatin associated with NGN3 promoter” value is listed as “significantly reduced”, the “H3K27me3 content of chromatin associated with PDX1 promoter” value is listed as “significantly reduced” and the “H3K27me3 content of chromatin associated with the INS promoter domain” value is listed as “significantly reduced”. Besides, the “insulin concentration after incubation in high-glucose media (28 mM glucose, 1 hour)” value in experiment [7] (2-day stimulation (FIG. 13d), GSK126 10 μM, EPZ6438 1 μM, Triptolide 20 nM, not observed in DMSO control) was “significant elevations”. Also, the “Release of insulin (glucose stimulated)” value in experiment [7] (7 days stimulation (FIG. 13e)) is on record as “maintained”.
